Results taken from EP0476944B1, “Aromatase inhibiting 4(5)-imidazoles” (ORION-YHTYMÄ OY, priority 1990, dated 1992).

Test: Acute toxicity, oral, in mice
Conditions: mouse, in vivo; oral administration; young adult female mice of NMRI-strain; read-out: Acute toxicity, LD₅₀
Description: Acute toxicity, LD₅₀, was determined by using young adult female mice of NMRI-strain. The administration was oral. The LD₅₀-value for 4-[2,4-bis(4-fluorophenyl)butyl]-1H-imidazole was 400 mg/kg.

Structure (SMILES): Fc1ccc(CCC(Cc2c[nH]cn2)c2ccc(F)cc2)cc1 (stereo not shown) [Compound 3, 4-[2,4-bis(4-fluorophenyl)butyl]-1H-imidazole]
- LD50: 400 mg/kg
